Experimental data: PMC12628652, “A Validated UPLC‐MS/MS Method for Monitoring Temozolomide and Perillyl Alcohol Metabolites in Biological Matrices: Insights From a Preclinical Pharmacokinetic Study” (Biomedical Chromatography, 2025)

Assay: Stability of analytes in rat plasma and tissue matrices (freeze-thaw, bench-top, autosampler)
Assay type: physicochemical
Details: for Stability (ER %) Autosampler: 10°C for 24 h; for Stability (ER %) Bench-top: room temperature for 6 h; for Stability (ER %) Freeze/thaw: three freeze–thaw cycles over 24-h intervals
Protocol: QC samples were prepared by spiking blank rat plasma with PA, AIC, and TMZ at three concentration levels: 30, 80, and 200 ng/mL. Internal standards (IS1 and IS2) were added to each sample at a final concentration of 100 ng/mL. Whole blood was obtained from untreated anesthetized rats that were euthanized as part of the study protocol. Blood samples were collected into heparinized tubes and centrifuged at 3500 rpm for 10 min at 20°C to separate plasma. Organs including the brain, lungs, kidneys, spleen, and liver were promptly excised and homogenized using a Marconi mechanical tissue homogenizer (5 mm probe) in phosphate‐buffered saline (PBS, pH 7.4) at a 1:5 (w/v) tissue‐to‐buffer ratio.
For each matrix sample, 50 μL of homogenate or plasma was mixed with 50 μL of internal standard (IS) solution (100 ng/mL), followed by the addition of the respective working solution to reach the target analyte concentration. The volume was adjusted to 1 mL using an appropriate solvent mixture. Samples were centrifuged again at 3500 rpm for 10 min at 4°C. The resulting supernatants were filtered through 0.22 μm membrane filters prior to chromatographic analysis. All calibration standards and QC samples were prepared freshly on the day of analysis to minimize analyte degradation.
The stability of PA, AIC, and TMZ in rat plasma was assessed under the following conditions using low, medium, and high QC levels: (1) Freeze–thaw stability: Three freeze–thaw cycles over 24‐h intervals; (2) Bench‐top stability: Storage at room temperature for 6 h; (3) Autosampler stability: Storage at 10°C for 24 h. Analytes were considered stable if the relative error (RE%) remained within ±15% (Tiwari and Tiwari [2010]).

[1] = rat brain homogenate, 200 ng/mL
[2] = rat kidney homogenate, 30 ng/mL
[3] = rat kidney homogenate, 80 ng/mL
[4] = rat kidney homogenate, 200 ng/mL
[5] = rat liver homogenate, 200 ng/mL
[6] = rat spleen homogenate, 30 ng/mL
[7] = rat spleen homogenate, 80 ng/mL
[8] = rat spleen homogenate, 200 ng/mL

Stability (ER %) Autosampler (rat brain homogenate, 30 ng/mL): 2.95% | Stability (ER %) Bench-top (rat brain homogenate, 30 ng/mL): 1.28% | Stability (ER %) Freeze/thaw (rat brain homogenate, 30 ng/mL): 1.93% | Stability (ER %) Autosampler (rat brain homogenate, 80 ng/mL): 2.37% | Stability (ER %) Bench-top (rat brain homogenate, 80 ng/mL): 10.03% | Stability (ER %) Freeze/thaw (rat brain homogenate, 80 ng/mL): 7.85% | Stability (ER %) Autosampler [1]: 4.49% | Stability (ER %) Bench-top [1]: 5.74% | Stability (ER %) Freeze/thaw [1]: 2.46% | Stability (ER %) Autosampler [2]: 4.24% | Stability (ER %) Bench-top [2]: 9.61% | Stability (ER %) Freeze/thaw [2]: 8.61% | Stability (ER %) Autosampler [3]: 3.42% | Stability (ER %) Bench-top [3]: 7.75% | Stability (ER %) Freeze/thaw [3]: 7.99% | Stability (ER %) Autosampler [4]: 3.31% | Stability (ER %) Bench-top [4]: 1.36% | Stability (ER %) Freeze/thaw [4]: 1.82% | Stability (ER %) Autosampler (rat liver homogenate, 30 ng/mL): 5.04% | Stability (ER %) Bench-top (rat liver homogenate, 30 ng/mL): 1.59% | Stability (ER %) Freeze/thaw (rat liver homogenate, 30 ng/mL): 1.52% | Stability (ER %) Autosampler (rat liver homogenate, 80 ng/mL): 2.92% | Stability (ER %) Bench-top (rat liver homogenate, 80 ng/mL): 2.49% | Stability (ER %) Freeze/thaw (rat liver homogenate, 80 ng/mL): 3.24% | Stability (ER %) Autosampler [5]: 4.45% | Stability (ER %) Bench-top [5]: 0.42% | Stability (ER %) Freeze/thaw [5]: 2.39% | Stability (ER %) Autosampler (rat lung homogenate, 30 ng/mL): 4.01% | Stability (ER %) Bench-top (rat lung homogenate, 30 ng/mL): 1.39% | Stability (ER %) Freeze/thaw (rat lung homogenate, 30 ng/mL): 2.68% | Stability (ER %) Autosampler (rat lung homogenate, 80 ng/mL): 4.14% | Stability (ER %) Bench-top (rat lung homogenate, 80 ng/mL): 2.94% | Stability (ER %) Freeze/thaw (rat lung homogenate, 80 ng/mL): 4.23% | Stability (ER %) Autosampler (rat lung homogenate, 200 ng/mL): 3.04% | Stability (ER %) Bench-top (rat lung homogenate, 200 ng/mL): 8.02% | Stability (ER %) Freeze/thaw (rat lung homogenate, 200 ng/mL): 6.65% | Stability (ER %) Autosampler (rat plasma, 30 ng/mL): 10.61% | Stability (ER %) Bench-top (rat plasma, 30 ng/mL): 5.32% | Stability (ER %) Freeze/thaw (rat plasma, 30 ng/mL): 1.26% | Stability (ER %) Autosampler (rat plasma, 80 ng/mL): 14.01% | Stability (ER %) Bench-top (rat plasma, 80 ng/mL): 11.90% | Stability (ER %) Freeze/thaw (rat plasma, 80 ng/mL): 8.67% | Stability (ER %) Autosampler (rat plasma, 200 ng/mL): 3.21% | Stability (ER %) Bench-top (rat plasma, 200 ng/mL): 13.82% | Stability (ER %) Freeze/thaw (rat plasma, 200 ng/mL): 4.45% | Stability (ER %) Autosampler [6]: 3.25% | Stability (ER %) Bench-top [6]: 2.55% | Stability (ER %) Freeze/thaw [6]: 2.72% | Stability (ER %) Autosampler [7]: 2.24% | Stability (ER %) Bench-top [7]: 6.84% | Stability (ER %) Freeze/thaw [7]: 5.52% | Stability (ER %) Autosampler [8]: 3.41% | Stability (ER %) Bench-top [8]: 9.57% | Stability (ER %) Freeze/thaw [8]: 8.51%
Compound: C=C(C)[C@@H]1CC=C(C(=O)O)CC1 [PA, perillic acid]
